Data taken from EP4678629A1, “IONIZABLE LIPID MOLECULE, PREPARATION METHOD THEREFOR AND USE THEREOF” (Maxirna (Shanghai) Pharmaceutical Co., Ltd., priority 2023, dated 2024).

What was measured:
[1] = In vitro transfection of cells with eGFP-mRNA lipid nanoparticle (LNP preparation), fluorescence imaging and flow cytometry; type: cell-based, mouse; settings: mouse, dc2.4 cells, 200 ng of mRNA per well, after 24 hours; read-out: Cell viability, %
Procedure, shortened: (§1)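 Mouse bone marrow-derived DC2.4 dendritic cells seeded at 2 × 10^5 cells/well in DMEM with 10% FBS, transfected with eGFP-mRNA LNPs the next day at 37 °C, 5% CO2. After 24 hours, viability, eGFP-positive rate and mean fluorescence intensity read by fluorescence imaging and flow cytometry.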

DC2.4 cells = experiment: as above; type: cell-based, mouse; settings: DC2.4 cells, 200 ng of mRNA per well, after 24 hours; for Positive rate, %: eGFP positivity rate; for Cell viability, %: 1440 min
Procedure, shortened: as §1

[2] = Size and polydispersity index (PDI) of the lipid nanoparticle by dynamic light scattering; type: physicochemical; settings: LNP encapsulating eGFP mRNA, ionizable lipid/DOPE/cholesterol/DMG-PEG2000 50/10/48.25/1.25 mol%, N/P 12; for Particle size: in nm (unit assumed)
Procedure, shortened: (§2)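 LNPs were made by microfluidic mixing of ionizable lipid/DOPE/cholesterol/DMG-PEG2000 (50/10/48.25/1.25 mol%) in ethanol with eGFP mRNA in 20 mM citrate pH 6.1, N/P 12, then ultrafiltered into DPBS and 0.2 µm filtered. Size and PDI by DLS at 173° backscatter; encapsulation by Ribogreen.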

mice = experiment: In vivo transfection with Fluc-mRNA lipid nanoparticle (LNP preparation), live imaging of fluorescence intensity; settings: 0.5 mg/kg; for fluorescence intensity, intramuscular injection administration / fluorescence intensity / expression in the chest and abdomen: Fluc-mRNA LNP of Table 2 (DOPE); for fluorescence intensity: intravenous and intramuscular injection
Experimental: According to the method described in Example II , LNP lipid nanoparticles of Fluc-mRNA (Maxirna FLuc mRNA, 1 mg/mL), SM-102 (CAS number: 2089251-47-6, A.V.T (Shanghai) Pharmaceutical Co., Ltd.), and positive control 1 (US10195156B2, it was prepared according to the method described in the above embodiment, the main difference lay in replacing 2-((3-aminopropyl)amino)ethane-1-ol with 2-((2-aminoethyl)amino)ethane-1-ol, the structure was as shown in FIG. 1) were prepared respectively. Cholesterol (Chol), DSPC, DOPE, and DMG-PEG2000 were purchased from A.V.T (Shanghai) Pharmaceutical Co., Ltd. Mice were randomly selected, and the lipid nanoparticles were injected intravenously and intramuscularly (4 mice per group) at a dosage of 0.5 mg/kg. Tris and Fluc-mRNA were directly injected as controls. After 6 hours, 200 ul of 10 mg/ml D-luciferin potassium salt was respectively injected into each mouse through the tail vein. After 10 minutes, the mice were placed under a live imaging system to observe the total fluorescence intensity of each mouse and take photos for recording. After 24 hours, the mice were placed under the live imaging system to observe the total fluorescence intensity of each mouse and take photos for recording. Table 2: Preparation parameters of each LNP
(§3) LNP lipid nanoparticles of Fluc-mRNA were respectively prepared using the method described in Example II. Mice were randomly selected, and the lipid nanoparticles were injected intramuscularly (2 mice per group) at a dosage of 0.5 mg/kg. Tris was directly injected as a control. After 6 hours, 200 ul of 10 mg/ml D-luciferin potassium salt was respectively injected into each mouse through the tail vein. After 10 minutes, the mice were placed under a live imaging system to observe the total fluorescence intensity of each mouse and take photos for recording. After 24 hours, the mice were placed under the live imaging system to observe the total fluorescence intensity of each mouse and take photos for recording. Table 3: Preparation parameters of each LNP
as §3, with “II .” for “II.”, “(3” for “(2”, “4:” for “3:”

[3] = Encapsulation efficiency of the lipid nanoparticle (eGFP mRNA) by Ribogreen method; type: physicochemical; settings: LNP encapsulating eGFP mRNA, ionizable lipid/DOPE/cholesterol/DMG-PEG2000 50/10/48.25/1.25 mol%, N/P 12
Procedure, shortened: as §2

[4] = Fluc-mRNA LNP of Table 3 (DSPC), intramuscular, 6 and 24 hours
[5] = Fluc-mRNA LNP of Table 4 (DSPC), intramuscular, 6 and 24 hours

| SMILES | viability at 24 h [1] [%] | Positive rate, % (DC2.4 cells) [%] | PDI [2] | Particle size [2] | whole-body expression (mice; [4]) | Encapsulation rate, % [3] [%] | fluorescence intensity, intramuscular injection administration (mice; intramuscular) | fluorescence intensity (mice; 6 and 24 hours) | expression in the chest and abdomen (mice; intramuscular) | Cell viability, % (DC2.4 cells) [%] | injection site (mice; [5]) | whole-body expression (mice; [5]) |
| --- | --- | --- | --- | --- | --- | --- | --- | --- | --- | --- | --- | --- |
| CCCCCCCCCCCOC(=O)CCCCCCCN(CCO)CCCN(CCCCCCCC(=O)OCCCCCCCCCCC)CCCCCCCC(=O)OCCCCCCCCCCC [Example 1, Diundecyl 8,8'-((3-((2-hydroxyethyl)(8-oxo-8-(undecyloxy)octyl)amino)propyl)azanediyl)dioctanoate] | 92 | 91.23 | 0.18 | 59.34 | even better than SM-102 | 96.32 |  |  |  |  |  |  |
| CCCCCCCCCCCOC(=O)CCCCCN(CCO)CCCN(CCCCCC(=O)OCCCCCCCCCCC)CCCCCC(=O)OCCCCCCCCCCC [Example 11, Diundecyl 6,6'-((3-((2-hydroxyethyl)(6-oxo-6-(undecyloxy)hexyl)amino)propyl)azanediyl)dihexanoate] | 84.3 | 95.68 | 0.17 | 97.96 |  | 90.99 | still maintain high fluorescence intensity | stronger than that of positive control 1 and comparable to SM-102 |  |  |  |  |
| CCCCCCCCCCCOC(=O)CCCN(CCO)CCCN(CCCC(=O)OCCCCCCCCCCC)CCCC(=O)OCCCCCCCCCCC [Example 12, Diundecyl 4,4'-((3-((2-hydroxyethyl)(4-oxo-4-(undecyloxy)butyl)amino)propyl)azanediyl)dibutanoate] | 81.2 | 97.78 | 0.22 | 88.51 | even better than SM-102 | 90.54 | still maintain high fluorescence intensity | stronger than that of positive control 1 and comparable to SM-102 | much lower than that of SM-102 |  |  |  |
| CCCCCC/C=C\COC(=O)CCCCCCCN(CCCCCCCC(=O)OC/C=C\CCCCCC)CCCN(CCCCCCCC(=O)OC/C=C\CCCCCC)CCCCCCCC(=O)OC/C=C\CCCCCC [Example 21, Tetra((Z)-non-2-en-1-yl)8,8',8",8‴-(propane-1,3-diyldi(azanetriyl))tetraoctanoate] |  |  |  |  |  |  | still maintain high fluorescence intensity | stronger than that of positive control 1 and comparable to SM-102 | much lower than that of SM-102 |  |  |  |
| CCCCC/C=C\C/C=C\CCCCCCCCOC(=O)CCCN(CCCO)CCCN(CCCC(=O)OCCCCCCCC/C=C\C/C=C\CCCCC)CCCC(=O)OCCCCCCCC/C=C\C/C=C\CCCCC [Example 81, Di((9Z,12Z)-octadeca-9,12-dien-1-yl)4,4'-((3-((3-hydroxypropyl)(4-(((9Z,12Z)-octadeca-9,12-dien-1-yl)oxo)-4-oxobutyl)amino)propyl)azanediyl)dibutanoate] |  | 93.39 |  | 99.10 | even better than SM-102 | 99.10 |  |  |  | 76.4 |  |  |
| CCCCC/C=C\C/C=C\CCCCCCCCOC(=O)CCCN(CCCO)CCCCN(CCCC(=O)OCCCCCCCC/C=C\C/C=C\CCCCC)CCCC(=O)OCCCCCCCC/C=C\C/C=C\CCCCC [Example 89] |  | 92.26 | 0.09 | 96.38 |  | 94.22 |  |  |  | 94.0 | superior to those of positive control 1 and SM-102 | superior to those of positive control 1 and SM-102 |
| CCCCC/C=C\C/C=C\CCCCCCCCOC(=O)CCCCCCN(CCCO)CCCN(CCCCCCC(=O)OCCCCCCCC/C=C\C/C=C\CCCCC)CCCCCCC(=O)OCCCCCCCC/C=C\C/C=C\CCCCC [Example 114] | 93.4 | 91.74 | 0.16 | 89.25 |  | 92.78 |  |  |  |  |  |  |
